Where two headings read alike, the source gives them in different places. Numbered stars: 1 amine (or outer) side, 2 acyl side, 3 side chain; on linkers, the order of the positions; unused ones are H or OH. Bridge positions count the residues as written; N and C are the ends. Square brackets hold non-standard residues; d marks the D form. Peptide text beside a SMILES is read from it. * marks the point of attachment. C20 diacid = O=C(O)CCCCCCCCCCCCCCCCCCC(=O)*; γGlu = O=C(O)[C@H](CCC(=O)[*:2])N[*:1]; NMeI = CC[C@H](C)[C@H](NC)C(=O)O; Sar = CNCC(=O)O
Key:
[1] = Solubility assessment (turbidity absorbance at 325 nm); format: physicochemical; details: stock 2 mg/ml diluted 1:1, ambient temperature (typically 25°C), n=1; for Solubility, Acetate buffer pH 4: 100 mM acetate buffer pH 4.0; for Solubility, Acetate buffer pH 5: 100 mM acetate buffer pH 5.0; for Solubility, Histidine buffer pH 6: 100 mM histidine buffer pH 6.0; for Solubility, Histidine buffer pH 7: 100 mM histidine buffer pH 7.0; for Solubility, Phosphate buffer pH 6: 100 mM phosphate buffer pH 6.0; for Solubility, Phosphate buffer pH 7: 100 mM phosphate buffer pH 7.0; for Solubility, Phosphate buffer pH 7.5: 100 mM phosphate buffer pH7.5
How it was run: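 Peptide stock (2 mg/ml, water pH 2.5) diluted 1:1 into 100 mM acetate (pH 4.0, 5.0), histidine (pH 6.0, 7.0) or phosphate (pH 6.0–7.5) buffer; absorbance at 325 nm read at about 25°C, n=1. A325 ≤ 0.02 taken as solubility ≥ 1 mg/ml.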

[2] = target: T1, human calcitonin receptor (hCTR2) (Homo sapiens, UniProt P30988); assay: hCTR2 assay: induction of cAMP (AlphaScreen cAMP Assay kit) in COS7 cells expressing hCTR2; format: cell-based
T1 construct: expressed in transfected cells
T1 sequence (P30988 25-474): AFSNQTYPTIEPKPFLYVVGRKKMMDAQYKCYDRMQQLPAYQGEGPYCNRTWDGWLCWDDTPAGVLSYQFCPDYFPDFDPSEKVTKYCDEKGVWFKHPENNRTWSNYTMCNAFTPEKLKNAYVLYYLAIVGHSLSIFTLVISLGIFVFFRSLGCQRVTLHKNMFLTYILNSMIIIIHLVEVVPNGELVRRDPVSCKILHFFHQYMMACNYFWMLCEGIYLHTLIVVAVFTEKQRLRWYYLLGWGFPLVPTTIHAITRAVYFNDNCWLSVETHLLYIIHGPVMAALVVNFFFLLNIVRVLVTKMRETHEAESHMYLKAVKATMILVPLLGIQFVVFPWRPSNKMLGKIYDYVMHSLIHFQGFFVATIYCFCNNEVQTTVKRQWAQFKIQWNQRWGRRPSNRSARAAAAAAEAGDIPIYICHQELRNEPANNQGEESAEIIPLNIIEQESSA
How it was run: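 Functional agonism is measured as cAMP accumulation in a COS7 line stably transfected with hCTR2, lacking endogenous RAMPs. Peptides act for 15 min at 37° C with IBMX present, and curves are fitted with a 4-parameter logistic model.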

Row | Structure (SMILES) | Solubility, Acetate buffer pH 4 [1] | Solubility, Acetate buffer pH 5 [1] | Solubility, Histidine buffer pH 6 [1] | Solubility, Histidine buffer pH 7 [1] | Solubility, Phosphate buffer pH 6 [1] | Solubility, Phosphate buffer pH 7 [1] | Solubility, Phosphate buffer pH 7.5 [1] | EC50 ([2]; cAMP induction in COS7 cells expressing hCTR2, average of a minimum of 3 determinations, read-out: hCTR2 EC50) [nM] | EC50 [2] [nM]
1 | CC[C@H](C)[C@@H](C(=O)N[C@@H](CC(C)C)C(=O)N[C@@H](CO)C(=O)N[C@@H](CO)C(=O)N[C@H](C(=O)N[C@@H](CC(N)=O)C(=O)N[C@H](C(=O)NCC(=O)N[C@@H](CO)C(=O)N[C@@H](CC(N)=O)C(=O)N[C@H](C(=O)N1CCC[C@H]1C(N)=O)[C@@H](C)O)C(C)C)[C@@H](C)O)N(C)C(=O)CN(C)C(=O)[C@H](Cc1ccccc1)NC(=O)[C@H](CC(N)=O)NC(=O)[C@H](CC(N)=O)NC(=O)[C@H](CO)NC(=O)[C@H](CO)NC(=O)[C@H](CCCNC(=N)N)NC(=O)[C@H](Cc1c[nH]cn1)NC(=O)[C@H](CC(C)C)NC(=O)[C@H](Cc1ccccc1)NC(=O)[C@H](CCC(=O)O)NC(=O)[C@H](C)NC(=O)[C@H](CC(C)C)NC(=O)[C@H](CCCNC(=N)N)NC(=O)[C@H](CCC(N)=O)NC(=O)[C@@H](NC(=O)[C@H](C)NC(=O)[C@@H]1CSSC[C@H](NC(=O)[C@H](CCCCN)NC(=O)CC[C@H](NC(=O)CCCCCCCCCCCCCCCCCCC(=O)O)C(=O)O)C(=O)N[C@@H](CC(N)=O)C(=O)N[C@@H]([C@@H](C)O)C(=O)N[C@@H](C)C(=O)N[C@@H]([C@@H](C)O)C(=O)N1)[C@@H](C)O [Compound 58, [19CD]-isoGlu-KC()NTATC()ATQRLAEFLHRSSNNF-Gly(Me)-Ile(Me)-LSSTNVGSNTP-NH2] ({C20 diacid-γGlu}-KCNTATCATQRLAEFLHRSSNNF[Sar][NMeI]LSSTNVGSNTP-NH2; disulfide 2-7) | SS (SS indicates solubility ≥ 1mg/ml) | SS (SS indicates solubility ≥ 1mg/ml) | SS (SS indicates solubility ≥ 1mg/ml) | SS (SS indicates solubility ≥ 1mg/ml) | SS (SS indicates solubility ≥ 1mg/ml) | II (II indicates solubility ≤ 1 mg/ml) | SS (SS indicates solubility ≥ 1mg/ml) | 0.11 | –
2 | CC[C@H](C)[C@@H](C(=O)N[C@@H](CC(C)C)C(=O)N[C@H](CO)C(=O)N[C@@H](CO)C(=O)N[C@H](C(=O)N[C@@H](CC(N)=O)C(=O)N[C@H](C(=O)NCC(=O)N[C@@H](CO)C(=O)N[C@@H](CC(N)=O)C(=O)N[C@H](C(=O)N1CCC[C@H]1C(N)=O)[C@@H](C)O)C(C)C)[C@@H](C)O)N(C)C(=O)[C@H](C)NC(=O)CN(C)C(=O)[C@@H](Cc1ccccc1)NC(=O)[C@H](CC(N)=O)NC(=O)[C@H](CC(N)=O)NC(=O)[C@H](CO)NC(=O)[C@H](CO)NC(=O)[C@H](Cc1c[nH]cn1)NC(=O)[C@H](Cc1c[nH]cn1)NC(=O)[C@H](CC(C)C)NC(=O)[C@H](Cc1ccccc1)NC(=O)[C@H](CCC(=O)O)NC(=O)[C@H](C)NC(=O)[C@H](CC(C)C)NC(=O)[C@H](CCCNC(=N)N)NC(=O)[C@H](CCC(N)=O)NC(=O)[C@@H](NC(=O)[C@H](C)NC(=O)[C@@H]1CSSC[C@H](NC(=O)[C@H](CCCNC(=N)N)NC(=O)CC[C@H](NC(=O)CCCCCCCCCCCCCCCCCCC(=O)O)C(=O)O)C(=O)N[C@@H](CC(N)=O)C(=O)N[C@@H]([C@@H](C)O)C(=O)N[C@@H](C)C(=O)N[C@@H]([C@@H](C)O)C(=O)N1)[C@@H](C)O [Compound 59, [19CD]-isoGlu-RC()NTATC()ATQRLAEFLHHSSNN-DPhe-Gly(Me)-A-Ile(Me)-L-DSer-STNVGSNTP-NH2] ({C20 diacid-γGlu}-RCNTATCATQRLAEFLHHSSNN[dF][Sar]A[NMeI]L[dS]STNVGSNTP-NH2; disulfide 2-7) | SS (SS indicates solubility ≥ 1mg/ml) | SS (SS indicates solubility ≥ 1mg/ml) | SS (SS indicates solubility ≥ 1mg/ml) | SS (SS indicates solubility ≥ 1mg/ml) | SS (SS indicates solubility ≥ 1mg/ml) | II (II indicates solubility ≤ 1 mg/ml) | SS (SS indicates solubility ≥ 1mg/ml) | – | 0.14
3 | CC[C@H](C)[C@@H](C(=O)N[C@@H](CC(C)C)C(=O)N[C@@H](CO)C(=O)N[C@@H](CO)C(=O)N[C@H](C(=O)N[C@@H](CC(N)=O)C(=O)N[C@H](C(=O)NCC(=O)N[C@@H](CO)C(=O)N[C@@H](CC(N)=O)C(=O)N[C@H](C(=O)N1CCC[C@H]1C(N)=O)[C@@H](C)O)C(C)C)[C@@H](C)O)N(C)C(=O)[C@H](C)NC(=O)CN(C)C(=O)[C@H](Cc1ccccc1)NC(=O)[C@H](CC(N)=O)NC(=O)[C@H](CC(N)=O)NC(=O)[C@H](CO)NC(=O)[C@H](Cc1c[nH]cn1)NC(=O)[C@H](Cc1c[nH]cn1)NC(=O)[C@H](CC(C)C)NC(=O)[C@H](Cc1ccccc1)NC(=O)[C@H](CCC(=O)O)NC(=O)[C@H](C)NC(=O)[C@H](CC(C)C)NC(=O)[C@H](CCCNC(=N)N)NC(=O)[C@H](CCC(N)=O)NC(=O)[C@@H](NC(=O)[C@H](C)NC(=O)[C@@H]1CSSC[C@H](NC(=O)[C@H](CCCNC(=N)N)NC(=O)CC[C@H](NC(=O)CCCCCCCCCCCCCCCCCCC(=O)O)C(=O)O)C(=O)N[C@@H](CC(N)=O)C(=O)N[C@@H]([C@@H](C)O)C(=O)N[C@@H](C)C(=O)N[C@@H]([C@@H](C)O)C(=O)N1)[C@@H](C)O [Compound 45, [19CD]-isoGlu-RC()NTATC()ATQRLAEFLHHSNNF-Gly(Me)-A-Ile(Me)-LSSTNVGSNTP-NH2] ({C20 diacid-γGlu}-RCNTATCATQRLAEFLHHSNNF[Sar]A[NMeI]LSSTNVGSNTP-NH2; disulfide 2-7) | II (II indicates solubility ≤ 1 mg/ml) | II (II indicates solubility ≤ 1 mg/ml) | II (II indicates solubility ≤ 1 mg/ml) | II (II indicates solubility ≤ 1 mg/ml) | II (II indicates solubility ≤ 1 mg/ml) | II (II indicates solubility ≤ 1 mg/ml) | II (II indicates solubility ≤ 1 mg/ml) | – | 0.14

— patent EP3046573B1, “AMYLIN ANALOGUES” (Zealand Pharma A/S, priority 2013, dated 2015)
